What was measured:
Experiment in all cases: relative viability (nuclei count vs DMSO), 5 days (fraction); higher = more cells survive
VE-821 + Pictilisib = compound: CS(=O)(=O)c1ccc(-c2cnc(N)c(C(=O)Nc3ccccc3)n2)cc1 [VE-821] + CS(=O)(=O)N1CCN(Cc2cc3nc(-c4cccc5[nH]ncc45)nc(N4CCOCC4)c3s2)CC1 [Pictilisib] (partner 1 µM)
Procedure, shortened: (§1)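 Lung cancer cell lines were seeded in 1536-well plates and dosed by pin tool the next day, with either a single drug or a fixed anchor-drug dose combined with five library-drug doses (not always all listed) spaced in √10 steps. Five days later, one step fixed the cells and stained their nuclei (final 0.05% Triton X-100, 1% formaldehyde, 1 ug/ml Hoechst), and nuclei were counted on 4× images. Relative viability is the nuclei count in treated wells divided by the count in vehicle wells, and each value is the median of duplicate plates.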

Vismodegib + Lapatinib = compound: CS(=O)(=O)c1ccc(C(=O)Nc2ccc(Cl)c(-c3ccccn3)c2)c(Cl)c1 [Vismodegib] + CS(=O)(=O)CCNCc1ccc(-c2ccc3ncnc(Nc4ccc(OCc5cccc(F)c5)c(Cl)c4)c3c2)o1 [Lapatinib] (partner 2 µM)
Procedure, shortened: as §1

Ruxolitinib + Navitoclax = compound: N#CC[C@H](C1CCCC1)n1cc(-c2ncnc3[nH]ccc23)cn1 [Ruxolitinib] + CC1(C)CCC(c2ccc(Cl)cc2)=C(CN2CCN(c3ccc(C(=O)NS(=O)(=O)c4ccc(N[C@H](CCN5CCOCC5)CSc5ccccc5)c(S(=O)(=O)C(F)(F)F)c4)cc3)CC2)C1 [Navitoclax] (partner 0.5 µM)
Procedure, shortened: as §1

Ruxolitinib + Linsitinib = compound: N#CC[C@H](C1CCCC1)n1cc(-c2ncnc3[nH]ccc23)cn1 [Ruxolitinib] + C[C@]1(O)C[C@@H](c2nc(-c3ccc4ccc(-c5ccccc5)nc4c3)c3c(N)nccn32)C1 [Linsitinib] (partner 1 µM)
Procedure, shortened: as §1

Row | Cell Line | relative viability (VE-821 + Pictilisib; first compound 0.08 µM) | relative viability (VE-821 + Pictilisib; first compound 0.253 µM) | relative viability (VE-821 + Pictilisib; first compound 0.8 µM) | relative viability (VE-821 + Pictilisib; first compound 2.53 µM) | relative viability (VE-821 + Pictilisib; first compound 8 µM) | relative viability (Vismodegib + Lapatinib; first compound 0.08 µM) | relative viability (Vismodegib + Lapatinib; first compound 0.253 µM) | relative viability (Vismodegib + Lapatinib; first compound 0.8 µM) | relative viability (Vismodegib + Lapatinib; first compound 2.53 µM) | relative viability (Vismodegib + Lapatinib; first compound 8 µM) | relative viability (Ruxolitinib + Navitoclax; first compound 0.08 µM) | relative viability (Ruxolitinib + Navitoclax; first compound 0.253 µM) | relative viability (Ruxolitinib + Navitoclax; first compound 0.8 µM) | relative viability (Ruxolitinib + Navitoclax; first compound 2.53 µM) | relative viability (Ruxolitinib + Navitoclax; first compound 8 µM) | relative viability (Ruxolitinib + Linsitinib; first compound 0.08 µM) | relative viability (Ruxolitinib + Linsitinib; first compound 0.253 µM) | relative viability (Ruxolitinib + Linsitinib; first compound 0.8 µM) | relative viability (Ruxolitinib + Linsitinib; first compound 2.53 µM) | relative viability (Ruxolitinib + Linsitinib; first compound 8 µM)
1 | NCI-H2085 | 0.461 | 0.446 | 0.485 | 0.483 | 0.409 | 0.764 | 0.809 | 0.71 | 0.751 | 0.81 | 1.12 | 1.07 | 1.2 | 1.11 | 0.999 | 0.875 | 0.888 | 1.01 | 0.836 | 0.685
2 | NCI-H2228 | 0.401 | 0.414 | 0.585 | 0.566 | 0.358 | 1.16 | 1.19 | 1.03 | 1.05 | 1.02 | 0.925 | 0.987 | 1.02 | 0.921 | 0.712 | 0.796 | 0.686 | 0.85 | 0.626 | 0.559
3 | EKVX | 0.509 | 0.412 | 0.451 | 0.411 | 0.356 | 0.21 | 0.223 | 0.164 | 0.243 | 0.197 | 1 | 0.872 | 0.881 | 0.821 | 0.912 | 0.876 | 0.897 | 0.966 | 0.893 | 0.813
4 | COR-L23 | 1.17 | 0.654 | 0.961 | 0.981 | 0.682 | 0.93 | 0.802 | 0.901 | 0.986 | 1.02 | 1.03 | 1.1 | 1.21 | 0.907 | 0.638 | 0.919 | 0.92 | 0.95 | 0.833 | 0.671
5 | SK-MES-1 | 0.4 | 0.389 | 0.423 | 0.337 | 0.372 | 0.498 | 0.475 | 0.404 | 0.484 | 0.499 | 1.3 | 1.12 | 1.26 | 1.18 | 0.9 | 1.15 | 1.02 | 1.04 | 0.866 | 0.622
6 | A549 | 0.616 | 0.481 | 0.531 | 0.468 | 0.229 | 1.02 | 0.972 | 0.971 | 0.979 | 0.908 | 1.2 | 1.16 | 1.21 | 0.961 | 0.508 | 0.594 | 0.576 | 0.896 | 0.558 | 0.675
7 | NCI-H650 | 0.882 | 0.927 | 0.731 | 0.985 | 0.88 | 0.967 | 0.695 | 0.623 | 0.841 | 0.899 | – | – | – | – | – | – | 0.795 | 1.11 | 0.677 | 0.55
8 | NCI-H2087 | 1.23 | 0.721 | 0.971 | 1.14 | 0.888 | 0.872 | 0.856 | 1.12 | 1.07 | 0.863 | 0.922 | 0.874 | 0.846 | 0.801 | 0.795 | 0.861 | 1.08 | 0.983 | 0.692 | 0.638
